Holding throughout (assay type): cell-based
In test [1] the test system is BaF3 cells expressing EGFR L858R-L718Q. The test can be described thus: Ba/F3 EGFR cell viability (CellTiter-Glo), L858R-L718Q. The following applies: Mus musculus, read-out: CTGlo (GI50). From the text:
(§1) RPMI 1640 media, cell culture flasks, and 384-well microplates were purchased from VWR (Radnor, PA, USA). Fetal bovine serum (FBS) was purchased from Life Technologies (Carlsbad, CA, USA) and CellTiter-Glo® was purchased from Promega (Madison, WI, USA). The Ba/F3 parental cell line was purchased from CrownBio (Santa Clara, CA). BaF3 cell lines ectopically expressing the EGFR mutations L858R, L858R-T790M, L858R-C797S, and L858R-T790M-C797S were purchased from CrownBio and EGFR mutations L858R-L718Q, L858R-T790M-L718Q, L858R-L792H, and L858R-T790M-L792H, were purchased from Signosis (Santa Clara, CA).
(§2) Cell viability was assessed based on the quantification of ATP using the CellTiter-Glo® assay (Promega, Madison, WI, USA). To determine the effect of compounds on cell viability, all Ba/F3 cell lines were plated at a cell density of 2000 cells/well in 384-well plates using RPMI 1640+10% FBS and treated with compounds of interest using a 10-point half-log dilution series in duplicate for 72 hours, with the highest dose set at […]. CellTiter-Glo® reagent was then added and luminescence signals were measured using an EnVision™ Multimode plate reader (Perkin Elmer, Santa Clara, CA). For data normalization, cells untreated with the test compounds at Time=72 hours were set to 100% (equivalent to maximal cell growth after 72 hours); cells untreated with the test compounds at Time=0 hours were set to 0% (equivalent to cytostasis); and media-only wells were set to −100% (equivalent to complete cytotoxicity). % Viability was determined by normalizing the signal with positive and DMSO treated negative controls on the same microtiter plate. The half-maximal inhibition of cell growth (GI50) is computed from where the fitted curve crosses 50% while the half-maximal lethal dose (LD50) is computed from where the fitted curve crosses −50%.

Test [2] relates to BaF3 cells expressing EGFR L858R-T790M-L792H. Put plainly: Ba/F3 EGFR cell viability (CellTiter-Glo), L858R-T790M-L792H. The following applies: Mus musculus, read-out: CTGlo (GI50).
Description: as §1, §2

The test system of test [3] is BaF3 cells expressing EGFR L858R-T790M-C797S. Put plainly: Ba/F3 EGFR cell viability (CellTiter-Glo), L858R-T790M-C797S. The note with it: Mus musculus, read-out: CTGlo (GI50).
Description: as §1, §2

Test [4] concerns BaF3 cells expressing EGFR L858R-T790M-L718Q. Put plainly: Ba/F3 EGFR cell viability (CellTiter-Glo), L858R-T790M-L718Q. The following applies: Mus musculus, read-out: CTGlo (GI50).
Description: as §1, §2

The target of test [5] is T1, EGFR L858R-T790M (Homo sapiens, UniProt P00533, L858R/T790M).
T1 construct: NCI-H1975 (harboring EGFR heterozygous L858R-T790M mutations); host or cells: NCI-H1975
T1 sequence (P00533 25-1210 T790M/L858R): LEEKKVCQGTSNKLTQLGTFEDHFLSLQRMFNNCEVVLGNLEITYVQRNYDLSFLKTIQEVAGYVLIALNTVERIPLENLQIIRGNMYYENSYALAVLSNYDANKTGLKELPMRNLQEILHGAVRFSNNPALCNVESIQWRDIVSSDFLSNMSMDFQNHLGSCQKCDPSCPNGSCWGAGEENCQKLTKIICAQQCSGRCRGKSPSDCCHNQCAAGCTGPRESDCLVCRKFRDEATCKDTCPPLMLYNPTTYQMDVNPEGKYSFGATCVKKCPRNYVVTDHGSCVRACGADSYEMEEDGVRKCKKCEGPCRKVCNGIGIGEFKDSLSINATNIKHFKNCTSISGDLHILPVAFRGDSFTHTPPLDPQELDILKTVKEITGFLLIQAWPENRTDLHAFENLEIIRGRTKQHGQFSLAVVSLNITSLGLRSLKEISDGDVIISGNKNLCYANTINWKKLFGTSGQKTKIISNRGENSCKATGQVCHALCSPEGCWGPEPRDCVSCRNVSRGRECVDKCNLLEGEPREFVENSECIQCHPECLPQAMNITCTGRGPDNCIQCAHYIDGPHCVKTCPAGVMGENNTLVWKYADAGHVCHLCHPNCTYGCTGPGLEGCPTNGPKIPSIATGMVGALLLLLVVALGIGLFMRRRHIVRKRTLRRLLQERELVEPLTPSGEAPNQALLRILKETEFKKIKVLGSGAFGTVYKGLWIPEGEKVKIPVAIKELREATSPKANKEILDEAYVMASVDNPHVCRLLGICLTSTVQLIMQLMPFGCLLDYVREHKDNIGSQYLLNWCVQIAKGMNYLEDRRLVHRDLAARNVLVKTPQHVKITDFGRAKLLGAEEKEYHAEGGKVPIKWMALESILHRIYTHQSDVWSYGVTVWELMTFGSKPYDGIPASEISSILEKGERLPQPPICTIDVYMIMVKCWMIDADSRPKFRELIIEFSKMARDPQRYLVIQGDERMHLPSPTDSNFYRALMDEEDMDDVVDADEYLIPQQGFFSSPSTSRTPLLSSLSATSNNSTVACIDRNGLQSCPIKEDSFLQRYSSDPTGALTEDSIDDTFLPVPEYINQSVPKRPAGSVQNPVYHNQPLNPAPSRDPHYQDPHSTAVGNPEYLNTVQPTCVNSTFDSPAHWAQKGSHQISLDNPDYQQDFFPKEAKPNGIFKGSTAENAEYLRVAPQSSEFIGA
The test can be described thus: EGFR degradation, Total EGFR (L858R-specific) HTRF, NCI-H1975. The following applies: 6 hours. In outline:
(§3)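 FRET signal from HTRF kits measured phospho-EGFR at pY1068 or total EGFR after 6 h treatment at 37 °C. Compounds ran as 11-point half-log dilutions from 10 μM in duplicate, in cells in phenol red-free RPMI with 10% FBS. Concentrations giving 50% inhibition or degradation were reported as IC50 or DC50.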

The test system of test [6] is BaF3 cells expressing EGFR L858R-L792H. Put plainly: Ba/F3 EGFR cell viability (CellTiter-Glo), L858R-L792H. The note with it: Mus musculus, read-out: CTGlo (GI50).
Description: as §1, §2

Test [7] deals with T2, pY1068 EGFR L858R-T790M (Homo sapiens, UniProt P00533, L858R/T790M).
T2 construct: NCI-H1975 (harboring EGFR heterozygous L858R-T790M mutations); host or cells: NCI-H1975
T2 sequence (P00533 25-1210 T790M/L858R): as above
Put plainly: Phospho-EGFR (pY1068) inhibition HTRF, NCI-H1975. The following applies: 6 hours, read-out: pEGFR IC50. From the text: (§4) NCI-H1975 (harboring EGFR heterozygous L858R-T790M mutations) and NCI-H3255 (harboring EGFR heterozygous L858R mutation) were purchased from ATCC and NCI, respectively. NCI-H1975+CS (harboring EGFR heterozygous L858R-T790M-C797S mutations) was generated using CRISPR technology to introduce the additional C797S mutation by Horizon Discovery. A431 (harboring EGFR wildtype) was purchased from ATCC. RPMI 1640 no-phenol red medium and fetal bovine serum (FBS) were purchased from Gibco (Grand Island, NY, USA). Cell culture flasks and 384-well microplates were acquired from VWR (Radnor, PA, USA). Phosphorylated (pY1068) EGFR and Total EGFR (using L858R-specific detection antibody and pan-EGFR antibody for EGFR mutant cell lines and EGFR wild-type cell lines, respectively) HTRF assay kits were purchased from Cisbio (Bedford, MA, USA).
(§5) Degradation of EGFR protein containing L858R mutation or wild-type was determined based on quantification of FRET signal using a Total EGFR (L858R-specific or pan-EGFR detecting) HTRF assay kit. Phospho-EGFR (pEGFR) inhibition was determined based on quantification of FRET signal using a pY1068 EGFR HTRF assay kit. In separate assay plates, test compounds were added to the 384-well plate from a top concentration of 10 μM with 11 points, half log titration in duplicates. For each assay, 12.5 uL of cells suspended in assay media (RPMI 1640 no-phenol red medium+10% FBS) at cell densities indicated for each cell line in Table 8 below were dispensed using a multi-channel pipette to 384-well low volume white HTRF microplates containing a duplicate concentration range of test compounds and DMSO controls. The plates were kept at 37° C. with 5% CO2 for 6 hours and then incubated with either phospho EGFR or Total EGFR HTRF detection antibodies according to the cell line and EGFR mutant being assayed. Cells treated in the absence of the test compound were the negative control. Positive control was set by wells containing all reagents but no cells. FRET signal was acquired on EnVision™ Multilabel Reader (PerkinElmer, Santa Clara, CA, USA). Compound concentration that achieves 50% degradation and inhibition was reported as DC50 and IC50, respectively.

Test [8] addresses EGFR L858R (Homo sapiens, UniProt P00533, L858R). Put plainly: EGFR degradation, Total EGFR (L858R-specific) HTRF, NCI-H3255. Further details: NCI-H3255 (harboring EGFR heterozygous L858R mutation); host or cells: NCI-H3255. The note with it: 6 hours. In outline: as §3
Test [9] deals with T3, EGFR L858R-T790M-C797S (Homo sapiens, UniProt P00533, C797S/L858R/T790M).
T3 construct: generated using CRISPR technology to introduce the additional C797S mutation by Horizon Discovery; host or cells: NCI-H1975+CS (CRISPR knock-in of C797S)
T3 sequence (P00533 25-1210 T790M/C797S/L858R): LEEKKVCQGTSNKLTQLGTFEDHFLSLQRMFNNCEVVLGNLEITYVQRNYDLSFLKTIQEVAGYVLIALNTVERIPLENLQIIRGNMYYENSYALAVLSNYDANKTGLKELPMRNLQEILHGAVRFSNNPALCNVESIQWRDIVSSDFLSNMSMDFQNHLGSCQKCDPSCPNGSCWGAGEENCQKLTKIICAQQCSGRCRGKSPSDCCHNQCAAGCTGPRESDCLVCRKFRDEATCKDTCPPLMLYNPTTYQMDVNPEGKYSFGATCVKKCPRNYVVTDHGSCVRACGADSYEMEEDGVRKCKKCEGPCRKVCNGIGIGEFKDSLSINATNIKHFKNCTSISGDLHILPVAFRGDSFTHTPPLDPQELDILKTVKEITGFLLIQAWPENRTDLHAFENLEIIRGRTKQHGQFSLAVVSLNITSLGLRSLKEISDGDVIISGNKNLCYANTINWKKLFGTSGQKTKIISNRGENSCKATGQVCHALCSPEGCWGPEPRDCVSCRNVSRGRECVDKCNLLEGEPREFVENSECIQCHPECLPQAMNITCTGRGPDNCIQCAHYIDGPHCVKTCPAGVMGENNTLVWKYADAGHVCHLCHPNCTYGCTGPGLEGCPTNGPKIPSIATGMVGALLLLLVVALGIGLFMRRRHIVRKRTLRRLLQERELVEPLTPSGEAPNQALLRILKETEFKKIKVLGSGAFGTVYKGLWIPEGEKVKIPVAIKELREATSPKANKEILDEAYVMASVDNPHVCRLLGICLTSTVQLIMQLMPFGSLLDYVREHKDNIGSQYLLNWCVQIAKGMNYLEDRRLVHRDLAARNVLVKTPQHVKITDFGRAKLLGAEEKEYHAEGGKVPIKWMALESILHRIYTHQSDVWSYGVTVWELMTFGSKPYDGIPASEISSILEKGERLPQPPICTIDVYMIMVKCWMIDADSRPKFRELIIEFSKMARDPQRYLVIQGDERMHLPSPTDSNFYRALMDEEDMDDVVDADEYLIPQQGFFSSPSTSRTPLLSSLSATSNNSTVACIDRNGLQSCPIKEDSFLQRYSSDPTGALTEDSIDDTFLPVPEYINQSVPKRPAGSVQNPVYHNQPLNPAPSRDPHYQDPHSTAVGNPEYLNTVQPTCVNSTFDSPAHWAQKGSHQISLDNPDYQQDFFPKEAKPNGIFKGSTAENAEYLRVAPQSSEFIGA
Put plainly: EGFR degradation, Total EGFR (L858R-specific) HTRF, NCI-H1975+CS. The following applies: 6 hours. In outline:
as §3

The target of test [10] is T4, pY1068 EGFR L858R (Homo sapiens, UniProt P00533, L858R).
T4 construct: NCI-H3255 (harboring EGFR heterozygous L858R mutation); host or cells: NCI-H3255
The test can be described thus: Phospho-EGFR (pY1068) inhibition HTRF, NCI-H3255. The note with it: 6 hours, read-out: pEGFR IC50.
Description: as §4, §5

The target of test [11] is T5, pY1068 EGFR L858R-T790M-C797S (Homo sapiens, UniProt P00533, C797S/L858R/T790M).
T5 construct: generated using CRISPR technology to introduce the additional C797S mutation by Horizon Discovery; host or cells: NCI-H1975+CS (CRISPR knock-in of C797S)
Put plainly: Phospho-EGFR (pY1068) inhibition HTRF, NCI-H1975+CS. The following applies: 6 hours, read-out: pEGFR IC50.
Description: as §4, §5

Setting [12] is: H1975 (L858R-T790M), read-out: tEGFR DC50.
The mark [13] stands for this setting: Table 9A, NCI-H1975 cells, Total EGFR HTRF, read-out: H1975 EGFR DC50.
[14] abbreviates: Table 9A, NCI-H3255 cells, Total EGFR HTRF, read-out: H3255 EGFR DC50.
Setting [15] is: Table 9A, NCI-H1975+CS cells, Total EGFR HTRF, read-out: H1975+ CS EGFR DC50.

pIC50: −log10 of the molar value. Like-named read-outs stand apart in the source and are kept apart here.

EGFR L858R, sequence (P00533 25-1210 L858R): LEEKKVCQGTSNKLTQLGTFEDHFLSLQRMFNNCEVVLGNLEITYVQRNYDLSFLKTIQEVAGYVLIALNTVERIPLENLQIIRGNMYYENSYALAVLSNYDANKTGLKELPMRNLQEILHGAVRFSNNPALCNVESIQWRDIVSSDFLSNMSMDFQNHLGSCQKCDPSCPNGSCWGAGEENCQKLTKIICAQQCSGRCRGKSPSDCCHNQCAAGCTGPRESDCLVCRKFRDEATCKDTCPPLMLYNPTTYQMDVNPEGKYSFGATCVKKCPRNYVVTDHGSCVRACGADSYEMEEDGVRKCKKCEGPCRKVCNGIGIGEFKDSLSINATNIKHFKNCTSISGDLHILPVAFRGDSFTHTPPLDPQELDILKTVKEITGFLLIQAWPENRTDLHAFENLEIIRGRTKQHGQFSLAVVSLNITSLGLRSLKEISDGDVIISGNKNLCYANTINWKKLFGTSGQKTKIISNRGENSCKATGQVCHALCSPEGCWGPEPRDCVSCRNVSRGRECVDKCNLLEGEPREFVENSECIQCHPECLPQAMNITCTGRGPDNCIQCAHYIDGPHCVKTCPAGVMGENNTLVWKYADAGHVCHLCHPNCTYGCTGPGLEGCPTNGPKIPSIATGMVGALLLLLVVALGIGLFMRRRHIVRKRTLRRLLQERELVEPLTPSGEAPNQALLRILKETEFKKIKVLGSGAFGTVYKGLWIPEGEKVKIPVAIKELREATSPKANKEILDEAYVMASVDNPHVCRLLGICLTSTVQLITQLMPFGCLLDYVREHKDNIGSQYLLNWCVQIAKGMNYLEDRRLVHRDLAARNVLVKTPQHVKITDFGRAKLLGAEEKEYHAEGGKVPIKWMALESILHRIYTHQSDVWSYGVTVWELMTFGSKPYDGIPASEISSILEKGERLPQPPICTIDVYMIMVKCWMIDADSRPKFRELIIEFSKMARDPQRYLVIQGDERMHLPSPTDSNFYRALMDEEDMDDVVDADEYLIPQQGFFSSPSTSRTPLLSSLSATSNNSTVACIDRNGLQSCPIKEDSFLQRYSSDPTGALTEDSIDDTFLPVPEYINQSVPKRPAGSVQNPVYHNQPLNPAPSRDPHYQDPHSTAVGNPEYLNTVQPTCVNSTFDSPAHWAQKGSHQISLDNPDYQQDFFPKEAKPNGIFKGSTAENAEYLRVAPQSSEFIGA

As for `O=C1CCC(Nc2ccc(N3CCC(O)(CC(=O)N4CC5(C4)CN(c4ccc(-c6cc(F)c7c(c6)C(=O)N(C(C(=O)Nc6nccs6)c6ncn8c6CCC8)C7)cc4)C5)CC3)c(Cl)c2)C(=O)N1` (single isomer, unassigned; isomer 1) [Compound 7, 2-(6-(4-(6-(2-(1-(2-chloro-4-((2,6-dioxopiperidin-3-yl)amino)phenyl)-4-hydroxypiperidin-4-yl)acetyl)-2,6-diazaspiro[3.3]heptan-2-yl)phenyl)-4-fluoro-1-oxoisoindolin-2-yl)-2-(6,7-dihydro-5H-pyrrolo[1,2-c]imidazol-1-yl)-N-(thiazol-2-yl)acetamide, isomer 1], the GI50 in test [1] was 17 nM; in test [2], 23 nM; in test [3], 10 nM; in [4] it was 45 nM; in test [6], 7 nM. Moreover, the figures for the half-maximal degradation concentration (DC50) in test [5] (setting [12]) and in test [5] (setting [13]) were 15 nM and less than 50 nM, respectively. In addition, the pIC50 in test [7] was 7.77.

For `O=C1CC[C@H](Nc2ccc(N3CCC(O)(CC(=O)N4CC5(CCN(c6ccc(-c7cc(F)c8c(c7)C(=O)N(C(C(=O)Nc7nccs7)c7ncn9c7CCC9)C8)cc6)CC5)C4)CC3)c(F)c2)C(=O)N1` (stereo partly drawn) [Compound 12], the DC50 in [5] (setting [12]) is 15 nM; in test [5] (setting [13]) it was less than 50 nM. Moreover, the pIC50 in test [7] was 7.70.

With `O=C1CCC(Nc2ccc(C3CCN(CC(=O)N4CC5(C4)CN(c4ccc(-c6cc(F)c7c(c6)C(=O)N(C(C(=O)Nc6nccs6)c6ncn8c6CCC8)C7)cc4)C5)CC3(F)F)cc2)C(=O)N1` (single isomer, unassigned) [Compound 4, 2-(6,7-dihydro-5H-pyrrolo[1,2-c]imidazol-1-yl)-2-(6-(4-(6-(2-(4-(4-((2,6-dioxopiperidin-3-yl)amino)phenyl)-3,3-difluoropiperidin-1-yl)acetyl)-2,6-diazaspiro[3.3]heptan-2-yl)phenyl)-4-fluoro-1-oxoisoindolin-2-yl)-N-(thiazol-2-yl)acetamide], the 50% degradation concentration (DC50) is 17 nM in test [8] (H3255 (L858R), read-out: tEGFR DC50); 33 nM in test [9] (H1975 + CS (L858R-T790M-C797S), read-out: tEGFR DC50); 15 nM in test [5] (setting [12]); less than 50 nM in test [5] (setting [13]). Also, the pIC50 in test [10] is 7.80; in test [11] it was 7.66; in [7], 7.82.

Consider `O=C1CCC(Nc2ccc(C3CCN(CC(=O)N4CCN(c5ccc(-c6cc(F)c7c(c6)C(=O)N(C(C(=O)Nc6ccccn6)c6ncn8c6CCC8)C7)cc5)CC4)CC3)cc2)C(=O)N1` (stereo not drawn) [Compound 19, 2-(6,7-dihydro-5H-pyrrolo[1,2-c]imidazol-1-yl)-2-(6-(4-(4-(2-(4-(4-((2,6-dioxopiperidin-3-yl)amino)phenyl)piperidin-1-yl)acetyl)piperazin-1-yl)phenyl)-4-fluoro-1-oxoisoindolin-2-yl)-N-(pyridin-2-yl)acetamide], for which the DC50 in [8] (setting [14]) was less than 50 nM; in test [9] (setting [15]) it was less than 50 nM; in test [5] (setting [13]) it was 50 to 150 nM.

Consider `O=C1CCC(Nc2ccc(C3CCN(CC(=O)N4CCN(Cc5ccc(-c6cc(F)c7c(c6)C(=O)N(C(C(=O)Nc6nccs6)c6ncn8c6CCC8)C7)cc5)CC4)CC3)c(F)c2)C(=O)N1` (stereo not drawn) [Compound 57, 2-(6,7-dihydro-5H-pyrrolo[1,2-c]imidazol-1-yl)-2-[6-[4-[[4-[2-[4-[4-[(2,6-dioxo-3-piperidyl)amino]-2-fluoro-phenyl]-1-piperidyl]acetyl]piperazin-1-yl]methyl]phenyl]-4-fluoro-1-oxo-isoindolin-2-yl]-N-thiazol-2-yl-acetamide], for which the DC50 in [8] (setting [14]), in [9] (setting [15]) and in [5] (setting [13]) was less than 50 nM throughout.

As to `N#Cc1cc(NC2CCC(=O)NC2=O)ccc1C1CCN(CC(=O)N2CCC(c3ccc(-c4cc(F)c5c(c4)C(=O)N(C(C(=O)Nc4nccs4)c4ncn6c4CCC6)C5)cc3)CC2)CC1` (stereo not drawn) [Compound 25, 2-(6-(4-(1-(2-(4-(2-cyano-4-((2,6-dioxopiperidin-3-yl)amino)phenyl)piperidin-1-yl)acetyl)piperidin-4-yl)phenyl)-4-fluoro-1-oxoisoindolin-2-yl)-2-(6,7-dihydro-5H-pyrrolo[1,2-c]imidazol-1-yl)-N-(thiazol-2-yl)acetamide], the DC50 in [8] (setting [14]), in [9] (setting [15]) and in test [5] (setting [13]) was less than 50 nM in each case.

As for `O=C1CC[C@H](Nc2ccc(C3CCN(CC(=O)N4CCN(Cc5ccc(-c6cc(F)c7c(c6)C(=O)N(C(C(=O)Nc6nccs6)c6ncn8c6CCC8)C7)cc5)CC4)CC3)c(F)c2)C(=O)N1` (stereo partly drawn) [Compound 58, 2-(6,7-dihydro-5H-pyrrolo[1,2-c]imidazol-1-yl)-2-[6-[4-[[4-[2-[4-[4-[[(3S)-2,6-dioxo-3-piperidyl]amino]-2-fluoro-phenyl]-1-piperidyl]acetyl]piperazin-1-yl]methyl]phenyl]-4-fluoro-1-oxo-isoindolin-2-yl]-N-thiazol-2-yl-acetamide], the DC50 in test [8] (setting [14]), in [9] (setting [15]) and in [5] (setting [13]) was less than 50 nM each time.
